The results in this text go back to patent publication US20230242530A1, “8-(AZETIDIN-1-YL)-[1,2,4]TRIAZOLO[1,5-A]PYRIDINYL COMPOUNDS, COMPOSITIONS AND METHODS OF USE THEREOF” (Genentech, Inc., priority 2016, published 2023).

Molecules are shown by their SMILES.

Assay [1] deals with T1, isolated recombinant JAK1 kinase domain (Homo sapiens, UniProt P23458).
T1 construct: isolated recombinant JAK1 and JAK2 kinase domain
The assay can be described thus: JAK enzyme assay, JAK1 kinase domain (Caliper LabChip). It counts as biochemical. The conditions noted are these: 1.5 nM JAK1, ATP 25 μM, Morrison tight binding model. The method, then: (§1) JAK Enzyme Assays were Carried Out as Follows:
(§2) The activity of the isolated recombinant JAK1 and JAK2 kinase domain was measured by monitoring phosphorylation of a peptide derived from JAK3 (Val-Ala-Leu-Val-Asp-Gly-Tyr-Phe-Arg-Leu-Thr-Thr, fluorescently labeled on the N-terminus with 5-carboxyfluorescein) using the Caliper LabChip® technology (Caliper Life Sciences, Hopkinton, Mass.). […] Reactions were incubated at 22 °C in 384-well polypropylene microtiter plates for 30 minutes and then stopped by addition of 25 μL of an EDTA containing solution (100 mM HEPES buffer (pH 7.2), 0.015% Brij-35, 150 mM EDTA), resulting in a final EDTA concentration of 50 mM. After termination of the kinase reaction, the proportion of phosphorylated product was determined as a fraction of total peptide substrate using the Caliper LabChip® 3000 according to the manufacturer's specifications. Ki values were then determined using the Morrison tight binding model (Morrison, J. F., Biochim. Biophys. Acta. 185:269-296 (1969); William, J. W. and Morrison, J. F., Meth. Enzymol., 63:437-467 (1979)) modified for ATP-competitive inhibition [Ki=Ki,app/(1+[ATP]/Km,app)].

Assay [2] has as its target T2, isolated recombinant JAK2 kinase domain (Homo sapiens, UniProt O60674).
T2 construct: isolated recombinant JAK1 and JAK2 kinase domain
The assay can be described thus: JAK enzyme assay, JAK2 kinase domain (Caliper LabChip). It counts as biochemical. The note with it: 0.2 nM JAK2, ATP 25 μM, Morrison tight binding model. The method, then:
as §1, §2

Assay [3] deals with JAK1-dependent STAT6 phosphorylation downstream of IL-13 stimulation in BEAS-2B cells. The assay can be described thus: JAK1 pathway assay in cell lines: IL-13 p-STAT6 BEAS-2B. It is filed as cell-based. The note with it: BEAS-2B human bronchial epithelial cells, 1 hr compound, IL-13 15 min, MSD readout. The method, then: JAK1 Pathway Assay in Cell Lines was Carried Out as Follows:
Inhibitor potency (EC50) was determined in cell-based assays designed to measure JAK1 dependent STAT phosphorylation. As noted above, inhibition of IL-4, IL-13, and IL-9 signalling by blocking the Jak/Stat signaling pathway can alleviate asthmatic symptoms in pre-clinical lung inflammation models (Mathew et al., 2001, J Exp Med 193(9): 1087-1096; Kudlacz et. al., 2008, Eur J. Pharmacol 582(1-3): 154-161).
In one assay approach, TF-1 human erythroleukemia cells obtained from the American Type Culture Collection (ATCC; Manassas, Va.) were used to measure JAK1-dependent STAT6 phosphorylation downstream of IL-13 stimulation. Prior to use in the assays, TF-1 cells were starved of GM-CSF overnight in OptiMEM medium (Life Technologies, Grand Island, N.Y.) supplemented with 0.5% charcoal/dextran stripped fetal bovine serum (FBS), 0.1 mM non-essential amino acids (NEAA), and 1 mM sodium pyruvate. The assays were run in 384-well plates in serum-free OptiMEM medium using 300,000 cells per well. In a second assay approach, BEAS-2B human bronchial epithelial cells obtained from ATCC were plated at 100,000 cells per well of a 96-well plate one day prior to the experiment. The BEAS-2B assay was run in complete growth medium (bronchial epithelial basal medium plus bulletkit; Lonza; Basel, Switzerland).
Test compounds were serially diluted 1:2 in DMSO and then diluted 1:50 in medium just before use. Diluted compounds were added to the cells, for a final DMSO concentration of 0.2%, and incubated for 30 mi (for the TF-1 assay) or 1 hr (for the BEAS-2B assay) at 37 QC. Then, cells were stimulated with human recombinant cytokine at their respective EC90 concentrations, as previously determined for each individual lot. Cells were stimulated with IL-13 (R&D Systems, Minneapolis, Minn.) for 15 min at 37 °C. The TF-1 cell reactions were stopped by the direct addition of 10× lysis buffer (Cell Signaling Technologies, Danvers, Mass.), whereas the BEAS-2B cell incubations were halted by the removal of medium and addition of 1× lysis buffer. The resultant samples were frozen in the plates at −80 °C. Compound mediated inhibition of STAT6 phosphorylation was measured in the cell lysates using MesoScale Discovery (MSD) technology (Gaithersburg, Md.). EC50 values were determined as the concentration of compound required for 50% inhibition of STAT phosphorylation relative to that measured for the DMSO control.

T2 sequence (O60674 849-1124 limits assumed): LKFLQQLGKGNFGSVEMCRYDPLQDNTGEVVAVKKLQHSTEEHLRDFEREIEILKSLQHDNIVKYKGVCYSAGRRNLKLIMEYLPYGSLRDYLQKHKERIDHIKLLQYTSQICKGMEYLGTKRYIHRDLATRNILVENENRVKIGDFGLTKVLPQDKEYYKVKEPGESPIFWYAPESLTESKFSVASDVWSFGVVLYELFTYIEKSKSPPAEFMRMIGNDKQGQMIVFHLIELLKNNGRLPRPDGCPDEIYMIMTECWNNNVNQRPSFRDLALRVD
T1 sequence (P23458 875-1153 limits assumed): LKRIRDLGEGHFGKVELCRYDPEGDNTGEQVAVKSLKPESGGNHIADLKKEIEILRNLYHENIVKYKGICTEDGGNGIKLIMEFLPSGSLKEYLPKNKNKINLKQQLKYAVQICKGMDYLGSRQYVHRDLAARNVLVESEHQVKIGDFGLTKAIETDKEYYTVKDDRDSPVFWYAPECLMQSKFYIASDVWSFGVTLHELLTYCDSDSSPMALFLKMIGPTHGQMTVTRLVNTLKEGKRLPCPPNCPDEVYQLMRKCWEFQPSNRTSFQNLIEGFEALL

As for `CN1CCN(C(=O)Cn2cc(Nc3nc4c(N5CC(CC#N)(n6cc(C#N)cn6)C5)cccn4n3)cn2)CC1` [Example 87, 1-[3-(cyanomethyl)-1-[2-[[1-[2-(4-methylpiperazin-1-yl)-2-oxo-ethyl]pyrazol-4-yl]amino]-[1,2,4]triazolo[1,5-a]pyridin-8-yl]azetidin-3-yl]pyrazole-4-carbonitrile], the Ki in assay [1] worked out at 0.2 nM; in assay [2], 0.7 nM. The compound further gave an EC50 in assay [3] of 17 nM.
`CN1CCN(C(=O)Cn2cc(Nc3nc4c(N5CC(CC#N)(n6cc(CCO)cn6)C5)cccn4n3)cn2)CC1` [Example 25, 2-[3-[4-(2-hydroxyethyl)pyrazol-1-yl]-1-[2-[[1-[2-(4-methylpiperazin-1-yl)-2-oxo-ethyl]pyrazol-4-yl]amino]-[1,2,4]triazolo[1,5-a]pyridin-8-yl]azetidin-3-yl]acetonitrile]: the figures for the Ki in assay [1] and in assay [2] were 0.4 nM and 2.3 nM, respectively. Besides, a half-maximal effect in assay [3] (EC50) was put at 137 nM.
Consider `N#CCC1(c2cccc(Cl)c2)CN(c2cccn3nc(Nc4cnn(CC(=O)N5CCC(N6CCOCC6)CC5)c4)nc23)C1` [Example 72, 2-[3-(3-chlorophenyl)-1-[2-[[1-[2-(4-morpholino-1-piperidyl)-2-oxo-ethyl]pyrazol-4-yl]amino]-[1,2,4]triazolo[1,5-a]pyridin-8-yl]azetidin-3-yl]acetonitrile], for which the inhibitory constant (Ki) in assay [1] and in assay [2] was 0.6 nM in each case. The compound also came in with a concentration for a half-maximal effect (EC50) in assay [3] of 24 nM.
`CCc1cnn(C2(CC#N)CN(c3cccn4nc(Nc5ccc6c(c5)CCN(C)C6)nc34)C2)c1` [Example 50, 2-[3-(4-ethylpyrazol-1-yl)-1-[2-[(2-methyl-3,4-dihydro-1H-isoquinolin-6-yl)amino]-[1,2,4]triazolo[1,5-a]pyridin-8-yl]azetidin-3-yl]acetonitrile]: the Ki in assay [1] was 1.8 nM; in assay [2], 2 nM. The compound also gave an EC50 in assay [3] of 65 nM.
With `N#CCC1(c2cccc(Cl)c2)CN(c2cccn3nc(Nc4cnn(CC(=O)N5CCN(C6COC6)CC5)c4)nc23)C1` [Example 69, 2-[3-(3-chlorophenyl)-1-[2-[[1-[2-[4-(oxetan-3-yl)piperazin-1-yl]-2-oxo-ethyl]pyrazol-4-yl]amino]-[1,2,4]triazolo[1,5-a]pyridin-8-yl]azetidin-3-yl]acetonitrile], the results for the inhibitory constant (Ki) in assay [1] and in assay [2] were 0.3 nM and 0.5 nM, respectively. Also, a half-maximal response in assay [3] (EC50) required 21 nM.
Turning to `CCc1cnn(C2(CC#N)CN(c3cccn4nc(Nc5cnn(CC(=O)N6CCN(C)CC6)c5)nc34)C2)c1` [Example 1, 2-[3-(4-ethyl-1H-pyrazol-1-yl)-1-[2-([1-[2-(4-methylpiperazin-1-yl)-2-oxoethyl]-1H-pyrazol-4-yl]amino)-[1,2,4]triazolo[1,5-a]pyridin-8-yl]azetidin-3-yl]acetonitrile], the Ki is 0.8 nM in assay [1] and 2 nM in assay [2]. The same compound showed a concentration for a half-maximal effect (EC50) in assay [3] of 29 nM.
With `N#CCC1(n2cc(C(F)(F)F)cn2)CN(c2cccn3nc(Nc4cnn(CC(=O)N5CCN(C6COC6)CC5)c4)nc23)C1` [Example 97, 2-[1-[2-[[1-[2-[4-(oxetan-3-yl)piperazin-1-yl]-2-oxo-ethyl]pyrazol-4-yl]amino]-[1,2,4]triazolo[1,5-a]pyridin-8-yl]-3-[4-(trifluoromethyl)pyrazol-1-yl]azetidin-3-yl]acetonitrile], the figures for the inhibition constant (Ki) in assay [1] and in assay [2] were 0.5 nM and 0.8 nM, respectively. In assay [3], the EC50 was determined as 51 nM.
Consider `CN1CCN(C(=O)Cn2cc(Nc3nc4c(N5CC(CC#N)(n6cc(CNCC(F)(F)F)cn6)C5)cccn4n3)cn2)CC1` [Example 48], for which the figures for the Ki in assay [1] and in assay [2] were 0.5 nM and 1.5 nM, respectively. In assay [3], this compound gave a 50% effective concentration (EC50) of 33 nM.
As for `N#CCC1(c2cccc(Cl)c2)CN(c2cccn3nc(Nc4cnn(CC(=O)N5CCC(NC6COC6)CC5)c4)nc23)C1` [Example 93, 2-[3-(3-chlorophenyl)-1-[2-[[1-[2-[4-(oxetan-3-ylamino)-1-piperidyl]-2-oxo-ethyl]pyrazol-4-yl]amino]-[1,2,4]triazolo[1,5-a]pyridin-8-yl]azetidin-3-yl]acetonitrile], the values for the Ki in assay [1] and in assay [2] were 0.4 nM and 0.7 nM, respectively. This compound showed an EC50 in assay [3] of 79 nM.
In the case of `CN1CCN(C(=O)Cn2cc(Nc3nc4c(N5CC(CC#N)(n6cc(-c7ccccc7)cn6)C5)cccn4n3)cn2)CC1` [Example 21, formic acid;2-[1-[2-[[1-[2-(4-methylpiperazin-1-yl)-2-oxo-ethyl]pyrazol-4-yl]amino]-[1,2,4]triazolo[1,5-a]pyridin-8-yl]-3-(4-phenylpyrazol-1-yl)azetidin-3-yl]acetonitrile], the Ki in assay [1] was 1.1 nM; in assay [2] it was 7.7 nM. In assay [3], this compound gave an EC50 of 43 nM.
The corresponding values for `CCc1cnn(C2(CC#N)CN(c3cccn4nc(Nc5ccc(C(=O)NCCN6CCOCC6)cc5)nc34)C2)c1` [Example 66, 4-[[8-[3-(cyanomethyl)-3-(4-ethylpyrazol-1-yl)azetidin-1-yl]-[1,2,4]triazolo[1,5-a]pyridin-2-yl]amino]-N-(2-morpholinoethyl)benzamide] are 0.3 nM, 0.5 nM and 31 nM.
`CCc1cnn(C2(CC#N)CN(c3cccn4nc(Nc5ccc6c(c5)CCN([C@H]5CCOC5)C6)nc34)C2)c1` (stereo in doubt) [Example 62, 2-[3-(4-ethylpyrazol-1-yl)-1-[2-[[2-[rac-(3S)-tetrahydrofuran-3-yl]-3,4-dihydro-1H-isoquinolin-6-yl]amino]-[1,2,4]triazolo[1,5-a]pyridin-8-yl]azetidin-3-yl]acetonitrile]: the Ki in assay [1] and in assay [2] was 0.4 nM in each case. For the same compound, a half-maximal effect in assay [3] (EC50) was put at 49 nM.
Turning to `Cc1ccccc1-c1cnn(C2(CC#N)CN(c3cccn4nc(Nc5cnn(CC(=O)N6CCN(C7COC7)CC6)c5)nc34)C2)c1` [Example 122, formic acid;2-[3-[4-(o-tolyl)pyrazol-1-yl]-1-[2-[[1-[2-[4-(oxetan-3-yl)piperazin-1-yl]-2-oxo-ethyl]pyrazol-4-yl]amino]-[1,2,4]triazolo[1,5-a]pyridin-8-yl]azetidin-3-yl]acetonitrile], the inhibition constant (Ki) in assay [1] worked out at 0.5 nM; in assay [2], 3.7 nM. The compound also displayed an EC50 in assay [3] of 43 nM.
In the case of `COCCN1CCN(C(=O)Cn2cc(Nc3nc4c(N5CC(CC#N)(n6cc(C(F)(F)F)cn6)C5)cccn4n3)cn2)CC1` [Example 94], the results for the Ki in assay [1] and in assay [2] were 0.3 nM and 1 nM, respectively. In assay [3], this compound yielded a concentration for a half-maximal effect (EC50) of 54 nM.
In the case of `Cc1nn(C2(CC#N)CN(c3cccn4nc(Nc5cnn(CC(=O)N6CCN(C)CC6)c5)nc34)C2)cc1C1CCCCC1` [Example 120, 2-[3-(4-cyclohexyl-3-methyl-pyrazol-1-yl)-1-[2-[[1-[2-(4-methylpiperazin-1-yl)-2-oxo-ethyl]pyrazol-4-yl]amino]-[1,2,4]triazolo[1,5-a]pyridin-8-yl]azetidin-3-yl]acetonitrile], the figures for the inhibition constant (Ki) in assay [1] and in assay [2] were 0.8 nM and 6.1 nM, respectively. In assay [3], this compound showed an EC50 of 46 nM.
`COc1cnn(C2(CC#N)CN(c3cccn4nc(Nc5cn[nH]c5)nc34)C2)c1` [Example 139, 2-[3-(4-methoxypyrazol-1-yl)-1-[2-(1H-pyrazol-4-ylamino)-[1,2,4]triazolo[1,5-a]pyridin-8-yl]azetidin-3-yl]acetonitrile]: the inhibition constant (Ki) in assay [1] was 0.4 nM; in assay [2] it was 0.9 nM. The compound further returned a concentration giving a half-maximal response (EC50) in assay [3] of 39 nM.

The term Ki denotes the dissociation constant of the complex between target and ligand, obtained from inhibition or displacement. What is called EC50 is the concentration at which the effect is half-maximal.
